Assay results: ChEMBL document CHEMBL1833945, “Synthesis and anticonvulsant activity of new N-Mannich bases derived from 5-cyclopropyl-5-phenyl- and 5-cyclopropyl-5-(4-chlorophenyl)-imidazolidine-2,4-diones” (Bioorg Med Chem, 2011)
Activity calls are given as the source filed them. The rule behind the calls is not given here.

system: not listed separately; experiment: Lipophilicity, log P of compound; type: physicochemical; conditions: octanol/water

logP	SMILES
2.92	O=C(OCc1ccccc1)N1CCN(CN2C(=O)NC(c3ccccc3)(C3CC3)C2=O)CC1 (stereo not given)

system: Mus musculus; experiment: Anticonvulsant activity in ip dosed CF1 albino mouse assessed as protection against maximal electroshock-induced seizures after 0.5 hrs; type: functional; conditions: read-out: MED

SMILES	minimal effective dose [mg/kg]
O=C(OCc1ccccc1)N1CCN(CN2C(=O)NC(c3ccccc3)(C3CC3)C2=O)CC1 (stereo not given)	300

system: not listed separately; experiment: Neurotoxicity in oral dosed Sprague-Dawley albino rat assessed as motor impairment by rotarod test; type: toxicity, organism-based; conditions: in vivo

SMILES	TD50 [mg/kg]
O=C(OCc1ccccc1)N1CCN(CN2C(=O)NC(c3ccccc3)(C3CC3)C2=O)CC1 (stereo not given)	> 60

system: Mus musculus; experiment: Anticonvulsant activity in ip dosed CF1 albino mouse assessed as protection against maximal electroshock-induced seizures after 4 hrs; type: functional; conditions: read-out: MED

SMILES	minimal effective dose [mg/kg]
O=C1NC(c2ccc(Cl)cc2)(C2CC2)C(=O)N1CN1CCN(c2ccccc2)CC1 (stereo not given)	100
O=C1NC(c2ccc(Cl)cc2)(C2CC2)C(=O)N1CN1CCN(c2ccccc2F)CC1 (stereo not given)	300
O=C1NC(c2ccccc2)(C2CC2)C(=O)N1CN1CCN(c2ccccc2)CC1 (stereo not given)	100
O=C1NC(c2ccccc2)(C2CC2)C(=O)N1CN1CCN(c2ccccc2F)CC1 (stereo not given)	100
O=C(OCc1ccccc1)N1CCN(CN2C(=O)NC(c3ccccc3)(C3CC3)C2=O)CC1 (stereo not given)	100

system: Mus musculus; experiment: Neurotoxicity in CF1 albino mouse assessed as impair in motor coordination at 300 mg/kg, ip after 4 hrs by rotarod test; type: toxicity, organism-based; design: dose 300 mg/kg, route intraperitoneal; conditions: in vivo

SMILES	Activity
O=C1NC(c2ccc(Cl)cc2)(C2CC2)C(=O)N1CN1CCN(c2ccccc2F)CC1 (stereo not given)	Non-toxic
O=C1NC(c2ccccc2)(C2CC2)C(=O)N1CN1CCN(c2ccccc2)CC1 (stereo not given)	Non-toxic
O=C1NC(c2ccccc2)(C2CC2)C(=O)N1CN1CCN(c2ccccc2F)CC1 (stereo not given)	Non-toxic
O=C(OCc1ccccc1)N1CCN(CN2C(=O)NC(c3ccccc3)(C3CC3)C2=O)CC1 (stereo not given)	Non-toxic

system: Rattus norvegicus; experiment: Neurotoxicity in Sprague-Dawley albino rat assessed as motor impairment at 30 mg/kg, po after 1 hrs by rotarod test; type: toxicity, organism-based; design: dose 30 mg/kg, route oral; conditions: in vivo

SMILES	Activity
O=C(OCc1ccccc1)N1CCN(CN2C(=O)NC(c3ccccc3)(C3CC3)C2=O)CC1 (stereo not given)	Non-toxic

system: Rattus norvegicus; experiment: Anticonvulsant activity in po dosed Sprague-Dawley albino rat assessed as protection against maximal electroshock-induced seizures; type: functional; conditions: not given

SMILES	ED50 [mg/kg]
O=C(OCc1ccccc1)N1CCN(CN2C(=O)NC(c3ccccc3)(C3CC3)C2=O)CC1 (stereo not given)	10

system: Mus musculus; experiment: Toxicity in subcutaneous pentylenetetrazole-induced CF1 albino mouse assessed as myoclonic jerks at 300 mg/kg, ip after 4 hrs; type: organism-based; design: dose 300 mg/kg; conditions: in vivo, sc

SMILES	Activity
O=C(OCc1ccccc1)N1CCN(CN2C(=O)NC(c3ccccc3)(C3CC3)C2=O)CC1 (stereo not given)	Toxic

system: Mus musculus; experiment: Anticonvulsant activity in CF1 albino mouse assessed as protection against maximal electroshock-induced seizures at 300 mg/kg, ip after 0.5 hrs; type: functional, organism-based; design: dose 300 mg/kg; conditions: not given

SMILES	Activity
O=C1NC(c2ccc(Cl)cc2)(C2CC2)C(=O)N1CN1CCN(c2ccccc2)CC1 (stereo not given)	inactive
O=C1NC(c2ccc(Cl)cc2)(C2CC2)C(=O)N1CN1CCN(c2ccccc2F)CC1 (stereo not given)	inactive
O=C1NC(c2ccccc2)(C2CC2)C(=O)N1CN1CCN(c2ccccc2)CC1 (stereo not given)	inactive
O=C1NC(c2ccccc2)(C2CC2)C(=O)N1CN1CCN(c2ccccc2F)CC1 (stereo not given)	inactive

system: Rattus norvegicus; experiment: Neurotoxicity in Sprague-Dawley albino rat assessed as motor impairment at 30 mg/kg, po after 2 hrs by rotarod test; type: toxicity, organism-based; design: dose 30 mg/kg, route oral; conditions: in vivo

SMILES	Activity
O=C(OCc1ccccc1)N1CCN(CN2C(=O)NC(c3ccccc3)(C3CC3)C2=O)CC1 (stereo not given)	Non-toxic

system: Mus musculus; experiment: Neurotoxicity in CF1 albino mouse assessed as impair in motor coordination at 300 mg/kg, ip after 0.5 hrs by rotarod test; type: toxicity, organism-based; design: dose 300 mg/kg, route intraperitoneal; conditions: in vivo

SMILES	Activity
O=C1NC(c2ccc(Cl)cc2)(C2CC2)C(=O)N1CN1CCN(c2ccccc2)CC1 (stereo not given)	Non-toxic
O=C1NC(c2ccc(Cl)cc2)(C2CC2)C(=O)N1CN1CCN(c2ccccc2F)CC1 (stereo not given)	Non-toxic
O=C1NC(c2ccccc2)(C2CC2)C(=O)N1CN1CCN(c2ccccc2)CC1 (stereo not given)	Non-toxic
O=C1NC(c2ccccc2)(C2CC2)C(=O)N1CN1CCN(c2ccccc2F)CC1 (stereo not given)	Non-toxic
O=C(OCc1ccccc1)N1CCN(CN2C(=O)NC(c3ccccc3)(C3CC3)C2=O)CC1 (stereo not given)	Non-toxic

organism: Rattus norvegicus; experiment: Protective index, ratio of TD50 for neurotoxicity in Sprague-Dawley albino rat to ED50 for inhibition of maximal electroshock-induced seizures in Sprague-Dawley albino rat; type: functional; conditions: not given

SMILES	PI
O=C(OCc1ccccc1)N1CCN(CN2C(=O)NC(c3ccccc3)(C3CC3)C2=O)CC1 (stereo not given)	>5.98

system: Rattus norvegicus; experiment: Anticonvulsant activity in Sprague-Dawley albino rat assessed as protection against maximal electroshock-induced seizures at 30 mg/kg, po after 4 hrs; type: functional, organism-based; design: dose 30 mg/kg; conditions: not given

SMILES	Activity
O=C(OCc1ccccc1)N1CCN(CN2C(=O)NC(c3ccccc3)(C3CC3)C2=O)CC1 (stereo not given)	Active

system: Mus musculus; experiment: Anticonvulsant activity in CF1 albino mouse assessed as protection against subcutaneous pentylenetetrazole-induced seizures at 300 mg/kg, […] after 4 hrs; type: functional, organism-based; design: dose 300 mg/kg; conditions: not given

SMILES	Activity
O=C1NC(c2ccc(Cl)cc2)(C2CC2)C(=O)N1CN1CCN(c2ccccc2)CC1 (stereo not given)	inactive
O=C1NC(c2ccc(Cl)cc2)(C2CC2)C(=O)N1CN1CCN(c2ccccc2F)CC1 (stereo not given)	inactive
O=C1NC(c2ccccc2)(C2CC2)C(=O)N1CN1CCN(c2ccccc2)CC1 (stereo not given)	inactive
O=C1NC(c2ccccc2)(C2CC2)C(=O)N1CN1CCN(c2ccccc2F)CC1 (stereo not given)	inactive

system: Mus musculus; experiment: Anticonvulsant activity in ip dosed CF1 albino mouse assessed as protection against subcutaneous pentylenetetrazole-induced seizures after 0.5 hrs; type: functional; conditions: read-out: MED

SMILES	minimal effective dose [mg/kg]
O=C1NC(c2ccccc2)(C2CC2)C(=O)N1CN1CCN(c2ccccc2)CC1 (stereo not given)	100

system: Rattus norvegicus; experiment: Neurotoxicity in Sprague-Dawley albino rat assessed as motor impairment at 30 mg/kg, po after 0.25 hrs by rotarod test; type: toxicity, organism-based; design: dose 30 mg/kg, route oral; conditions: in vivo

SMILES	Activity
O=C(OCc1ccccc1)N1CCN(CN2C(=O)NC(c3ccccc3)(C3CC3)C2=O)CC1 (stereo not given)	Non-toxic

system: Mus musculus; experiment: Toxicity in subcutaneous pentylenetetrazole-induced CF1 albino mouse assessed as myoclonic jerks at 300 mg/kg, ip after 0.5 hrs; type: organism-based; design: dose 300 mg/kg; conditions: in vivo, sc

SMILES	Activity
O=C(OCc1ccccc1)N1CCN(CN2C(=O)NC(c3ccccc3)(C3CC3)C2=O)CC1 (stereo not given)	Toxic

system: Rattus norvegicus; experiment: Anticonvulsant activity in Sprague-Dawley albino rat assessed as protection against maximal electroshock-induced seizures at 30 mg/kg, po after 0.5 hrs; type: functional, organism-based; design: dose 30 mg/kg; conditions: not given

SMILES	Activity
O=C(OCc1ccccc1)N1CCN(CN2C(=O)NC(c3ccccc3)(C3CC3)C2=O)CC1 (stereo not given)	inactive

system: Rattus norvegicus; experiment: Anticonvulsant activity in po dosed Sprague-Dawley albino rat assessed as time to peak effect; type: functional; conditions: not given

SMILES	Time [h]
O=C(OCc1ccccc1)N1CCN(CN2C(=O)NC(c3ccccc3)(C3CC3)C2=O)CC1 (stereo not given)	6

system: Rattus norvegicus; experiment: Neurotoxicity in Sprague-Dawley albino rat assessed as motor impairment at 30 mg/kg, po after 4 hrs by rotarod test; type: toxicity, organism-based; design: dose 30 mg/kg, route oral; conditions: in vivo

SMILES	Activity
O=C(OCc1ccccc1)N1CCN(CN2C(=O)NC(c3ccccc3)(C3CC3)C2=O)CC1 (stereo not given)	Non-toxic

system: Mus musculus; experiment: Neurotoxicity in CF1 albino mouse assessed as loss of rotard grasping at 300 mg/kg, ip after 4 hrs by rotarod test; type: toxicity, organism-based; design: dose 300 mg/kg, route intraperitoneal; conditions: in vivo

SMILES	Activity
O=C1NC(c2ccc(Cl)cc2)(C2CC2)C(=O)N1CN1CCN(c2ccccc2)CC1 (stereo not given)	Toxic

system: Rattus norvegicus; experiment: Neurotoxicity in Sprague-Dawley albino rat assessed as motor impairment at 30 mg/kg, po after 0.5 hrs by rotarod test; type: toxicity, organism-based; design: dose 30 mg/kg, route oral; conditions: in vivo

SMILES	Activity
O=C(OCc1ccccc1)N1CCN(CN2C(=O)NC(c3ccccc3)(C3CC3)C2=O)CC1 (stereo not given)	Non-toxic

system: Rattus norvegicus; experiment: Anticonvulsant activity in Sprague-Dawley albino rat assessed as protection against maximal electroshock-induced seizures at 30 mg/kg, po after 0.25 hrs; type: functional, organism-based; design: dose 30 mg/kg; conditions: not given

SMILES	Activity
O=C(OCc1ccccc1)N1CCN(CN2C(=O)NC(c3ccccc3)(C3CC3)C2=O)CC1 (stereo not given)	inactive
